Species on record: Rattus norvegicus
Assay: Open TG-GATES - Regimen: Single
Format: toxicity, organism-based, Sprague-Dawley
Design: regimen Single, gender Male, age 6 weeks
Details: in vivo, po, route gavage; for APTT / Bas / Eos / Fbg / Hb / Ht / Lym / MCH / MCHC / MCV / Mono / Neu / PT / Plat / RBC / Ret / WBC: tissue Blood; for KIDNEY_L / KIDNEY_R / KIDNEY_TOTAL: tissue Kidney; for LIVER: tissue Liver; for A/G / ALP / ALT / AST / BUN / CRE / Ca / Cl / DBIL / GLC / IP / K / LDH / Na / PL / RALB / TBIL / TC / TG / TP / gamma-GTP: tissue Plasma
[1] = 100 mg/kg, 3 h, dose level Middle
[2] = 100 mg/kg, 6 h, dose level Middle
[3] = 100 mg/kg, 9 h, dose level Middle
[4] = 100 mg/kg, 24 h, dose level Middle
[5] = 300 mg/kg, 3 h, dose level High
[6] = 300 mg/kg, 6 h, dose level High
[7] = 300 mg/kg, 9 h, dose level High
[8] = 300 mg/kg, 24 h, dose level High

## CCc1oc2ccccc2c1C(=O)c1cc(I)c(O)c(I)c1 [BENZIODARONE]
[1]
  TERMINAL_BW: 215.5 g
  APTT: 16.9 s
  Bas: 0%
  Eos: 0.6%
  Fbg: 189.8 mg/dL
  Hb: 13.1 g/dL
  Ht: 39.1%
  Lym: 75.8%
  MCH: 21.8 pg
  MCHC: 33.6%
  MCV: 64.9 fL
  Mono: 8.8%
  Neu: 15%
  PT: 11.9 s
  Plat: 118.7 x10_4/uL
  RBC: 603 x10_4/ul
  Ret: 9.2%
  WBC: 94.2 x10_2/uL
  KIDNEY_L: 1 g
  KIDNEY_R: 1 g
  KIDNEY_TOTAL: 2 g
  LIVER: 10.2 g
  A/G: 2.1
  ALP: 966.8 IU/L
  ALT: 36.6 IU/L
  AST: 69 IU/L
  BUN: 12.6 mg/dL
  CRE: 0.5 mg/dL
  Ca: 10.5 mg/dL
  Cl: 102.4 meq/L
  DBIL: 0.02 mg/dL
  GLC: 201.2 mg/dL
  IP: 9.3 mg/dL
  K: 4.4 meq/L
  LDH: 110 IU/L
  Na: 140.4 meq/L
  PL: 128.6 mg/dL
  RALB: 3.5 g/dL
  TBIL: 0.5 mg/dL
  TC: 73.8 mg/dL
  TG: 52.4 mg/dL
  TP: 5.2 g/dL
  gamma-GTP: 1.8 IU/L
[2]
  TERMINAL_BW: 210.6 g
  APTT: 16.8 s
  Bas: 0%
  Eos: 1%
  Fbg: 217.8 mg/dL
  Hb: 13.6 g/dL
  Ht: 40.7%
  Lym: 73.2%
  MCH: 21.7 pg
  MCHC: 33.3%
  MCV: 65.1 fL
  Mono: 9.2%
  Neu: 16.4%
  PT: 11.8 s
  Plat: 109.1 x10_4/uL
  RBC: 625.8 x10_4/ul
  Ret: 10.1%
  WBC: 113.1 x10_2/uL
  KIDNEY_L: 0.9 g
  KIDNEY_R: 0.9 g
  KIDNEY_TOTAL: 1.9 g
  LIVER: 9.7 g
  A/G: 2
  ALP: 826.8 IU/L
  ALT: 32.6 IU/L
  AST: 61.2 IU/L
  BUN: 12.4 mg/dL
  CRE: 0.5 mg/dL
  Ca: 10.7 mg/dL
  Cl: 103.2 meq/L
  DBIL: 0.02 mg/dL
  GLC: 182.4 mg/dL
  IP: 9.9 mg/dL
  K: 4.6 meq/L
  LDH: 108.4 IU/L
  Na: 140.4 meq/L
  PL: 133 mg/dL
  RALB: 3.6 g/dL
  TBIL: 0.3 mg/dL
  TC: 74.4 mg/dL
  TG: 77.8 mg/dL
  TP: 5.4 g/dL
  gamma-GTP: 1.6 IU/L
[3]
  TERMINAL_BW: 209.5 g
  APTT: 16.8 s
  Bas: 0%
  Eos: 1%
  Fbg: 202.2 mg/dL
  Hb: 13.6 g/dL
  Ht: 40.8%
  Lym: 76.4%
  MCH: 21.3 pg
  MCHC: 33.3%
  MCV: 63.9 fL
  Mono: 7.4%
  Neu: 15.4%
  PT: 12.4 s
  Plat: 121.3 x10_4/uL
  RBC: 638.4 x10_4/ul
  Ret: 8.2%
  WBC: 86.5 x10_2/uL
  KIDNEY_L: 1 g
  KIDNEY_R: 0.9 g
  KIDNEY_TOTAL: 1.9 g
  LIVER: 8.9 g
  A/G: 2.3
  ALP: 766.6 IU/L
  ALT: 29.8 IU/L
  AST: 63.4 IU/L
  BUN: 13 mg/dL
  CRE: 0.5 mg/dL
  Ca: 10.3 mg/dL
  Cl: 105.2 meq/L
  DBIL: 0.07 mg/dL
  GLC: 194.8 mg/dL
  IP: 10.9 mg/dL
  K: 4.5 meq/L
  LDH: 108.8 IU/L
  Na: 142.4 meq/L
  PL: 122.8 mg/dL
  RALB: 3.7 g/dL
  TBIL: 0.3 mg/dL
  TC: 68.2 mg/dL
  TG: 56.6 mg/dL
  TP: 5.4 g/dL
  gamma-GTP: 0.6 IU/L
[4]
  TERMINAL_BW: 228.7 g
  APTT: 17.4 s
  Bas: 0%
  Eos: 1.2%
  Fbg: 196.8 mg/dL
  Hb: 13.2 g/dL
  Ht: 39.3%
  Lym: 73.8%
  MCH: 22 pg
  MCHC: 33.7%
  MCV: 65.4 fL
  Mono: 9.6%
  Neu: 15.6%
  PT: 12.1 s
  Plat: 113.1 x10_4/uL
  RBC: 601.2 x10_4/ul
  Ret: 9%
  WBC: 106.2 x10_2/uL
  KIDNEY_L: 1 g
  KIDNEY_R: 1 g
  KIDNEY_TOTAL: 2 g
  LIVER: 11.9 g
  A/G: 2.1
  ALP: 1017.4 IU/L
  ALT: 36.8 IU/L
  AST: 66 IU/L
  BUN: 17.8 mg/dL
  CRE: 0.5 mg/dL
  Ca: 10.6 mg/dL
  Cl: 104.8 meq/L
  DBIL: 0.006 mg/dL
  GLC: 196 mg/dL
  IP: 7.6 mg/dL
  K: 4.6 meq/L
  LDH: 87.6 IU/L
  Na: 140.8 meq/L
  PL: 129 mg/dL
  RALB: 3.7 g/dL
  TBIL: 0.4 mg/dL
  TC: 65.8 mg/dL
  TG: 84 mg/dL
  TP: 5.5 g/dL
  gamma-GTP: 1 IU/L
[5]
  TERMINAL_BW: 211.6 g
  APTT: 17 s
  Bas: 0%
  Eos: 0.2%
  Fbg: 206 mg/dL
  Hb: 13 g/dL
  Ht: 39%
  Lym: 75.8%
  MCH: 21.6 pg
  MCHC: 33.3%
  MCV: 65 fL
  Mono: 7.4%
  Neu: 16.4%
  PT: 11.9 s
  Plat: 107 x10_4/uL
  RBC: 600.4 x10_4/ul
  Ret: 11.4%
  WBC: 93.8 x10_2/uL
  KIDNEY_L: 0.9 g
  KIDNEY_R: 1 g
  KIDNEY_TOTAL: 1.9 g
  LIVER: 10 g
  A/G: 2
  ALP: 893 IU/L
  ALT: 37.8 IU/L
  AST: 64.6 IU/L
  BUN: 16.4 mg/dL
  CRE: 0.6 mg/dL
  Ca: 10.5 mg/dL
  Cl: 102 meq/L
  DBIL: 0.056 mg/dL
  GLC: 230.8 mg/dL
  IP: 9.7 mg/dL
  K: 4.7 meq/L
  LDH: 102.8 IU/L
  Na: 139 meq/L
  PL: 133.6 mg/dL
  RALB: 3.5 g/dL
  TBIL: 0.5 mg/dL
  TC: 71.4 mg/dL
  TG: 71.4 mg/dL
  TP: 5.3 g/dL
  gamma-GTP: 1.2 IU/L
[6]
  TERMINAL_BW: 214.2 g
  APTT: 18.2 s
  Bas: 0%
  Eos: 1%
  Fbg: 205.8 mg/dL
  Hb: 13 g/dL
  Ht: 38.8%
  Lym: 79%
  MCH: 21.9 pg
  MCHC: 33.6%
  MCV: 65.4 fL
  Mono: 3.6%
  Neu: 16.8%
  PT: 12.2 s
  Plat: 113.1 x10_4/uL
  RBC: 593.6 x10_4/ul
  Ret: 11.2%
  WBC: 70.8 x10_2/uL
  KIDNEY_L: 0.9 g
  KIDNEY_R: 1 g
  KIDNEY_TOTAL: 1.9 g
  LIVER: 9.4 g
  A/G: 2.1
  ALP: 980.4 IU/L
  ALT: 39.6 IU/L
  AST: 64.4 IU/L
  BUN: 14.6 mg/dL
  CRE: 0.6 mg/dL
  Ca: 10.4 mg/dL
  Cl: 102.8 meq/L
  DBIL: 0.052 mg/dL
  GLC: 235.6 mg/dL
  IP: 10.3 mg/dL
  K: 4.5 meq/L
  LDH: 89 IU/L
  Na: 140.2 meq/L
  PL: 129.4 mg/dL
  RALB: 3.6 g/dL
  TBIL: 0.4 mg/dL
  TC: 73.8 mg/dL
  TG: 36 mg/dL
  TP: 5.2 g/dL
  gamma-GTP: 1.4 IU/L
[7]
  TERMINAL_BW: 215.8 g
  APTT: 18.7 s
  Bas: 0%
  Eos: 0.6%
  Fbg: 208.2 mg/dL
  Hb: 13.5 g/dL
  Ht: 40.2%
  Lym: 80%
  MCH: 22.1 pg
  MCHC: 33.6%
  MCV: 65.7 fL
  Mono: 6.8%
  Neu: 12.8%
  PT: 12.2 s
  Plat: 114.6 x10_4/uL
  RBC: 612 x10_4/ul
  Ret: 9.3%
  WBC: 88.9 x10_2/uL
  KIDNEY_L: 1 g
  KIDNEY_R: 1 g
  KIDNEY_TOTAL: 2 g
  LIVER: 9 g
  A/G: 2.1
  ALP: 976.4 IU/L
  ALT: 38.2 IU/L
  AST: 63 IU/L
  BUN: 17 mg/dL
  CRE: 0.6 mg/dL
  Ca: 10.5 mg/dL
  Cl: 103.8 meq/L
  DBIL: 0.098 mg/dL
  GLC: 214 mg/dL
  IP: 10.8 mg/dL
  K: 4.7 meq/L
  LDH: 107.6 IU/L
  Na: 141.8 meq/L
  PL: 139.2 mg/dL
  RALB: 3.7 g/dL
  TBIL: 0.2 mg/dL
  TC: 75.4 mg/dL
  TG: 77 mg/dL
  TP: 5.4 g/dL
  gamma-GTP: 1.4 IU/L
[8]
  TERMINAL_BW: 220.7 g
  APTT: 16.9 s
  Bas: 0%
  Eos: 0.6%
  Fbg: 200.8 mg/dL
  Hb: 13.4 g/dL
  Ht: 39.8%
  Lym: 81%
  MCH: 21.7 pg
  MCHC: 33.8%
  MCV: 64.4 fL
  Mono: 6%
  Neu: 12.6%
  PT: 12.1 s
  Plat: 120.3 x10_4/uL
  RBC: 618.2 x10_4/ul
  Ret: 9.6%
  WBC: 106.3 x10_2/uL
  KIDNEY_L: 1 g
  KIDNEY_R: 1 g
  KIDNEY_TOTAL: 2 g
  LIVER: 11.9 g
  A/G: 2.2
  ALP: 1044.4 IU/L
  ALT: 36.2 IU/L
  AST: 67.2 IU/L
  BUN: 17.8 mg/dL
  CRE: 0.6 mg/dL
  Ca: 10.7 mg/dL
  Cl: 104 meq/L
  DBIL: 0.008 mg/dL
  GLC: 184.8 mg/dL
  IP: 8.3 mg/dL
  K: 4.6 meq/L
  LDH: 89.2 IU/L
  Na: 141.2 meq/L
  PL: 120.2 mg/dL
  RALB: 3.9 g/dL
  TBIL: 0.3 mg/dL
  TC: 66.6 mg/dL
  TG: 72 mg/dL
  TP: 5.7 g/dL
  gamma-GTP: 1.4 IU/L
